Laboratory results published in US20240366612A1, “COMPOUNDS AND METHODS FOR MODULATING NUCLEIC ACID SPLICING” (REMIX THERAPEUTICS INC., priority 2021, published 2024).
Where a name gives a salt, the structure may show the parent alone.

Columns and labels:
[1] = system: HTT mRNA; experiment: Splicing RT-qPCR assay, HTT canonical (CJ) and alternative (AJ) junction mRNA; type: cell-based; conditions: Homo sapiens, A673 or K562 cells, 24 hours treatment; for IC50: decrease in CJ mRNA; for AC50: increase in AJ mRNA
Summary of the method: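 Compound-treated A673 or K562 cells (11-point 3-fold dilution, top dose 10 uM final, DMSO ≤0.25%) were incubated for 24 h at 37° C. Lysates underwent one-step RT-qPCR for canonical and alternative-exon junction isoforms. Normalization used PPIA for A673 and GAPDH or GUSB for K562.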

[2] = system: Target C CJ mRNA; experiment: Gene panel canonical junction qPCR assay, Target C; type: cell-based; conditions: Homo sapiens, larger gene panel, read-out: Target C IC50 (decrease in CJ mRNA levels)
Summary of the method: (§1)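 A673 or K562 cells treated 24 h with 11-point 3-fold dilutions (top 10 µM, ≤0.25% DMSO) at 37 °C. Canonical exon-junction mRNA measured by probe-based RT-qPCR, normalized to GAPDH, GUSB or PPIA and DMSO (2^−ΔΔCt), converted to percent response over a fixed ΔCt window; IC50 from 4-parameter fit.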

[3] = in vitro; conditions: human
[4] = system: MYB CJ mRNA; experiment: Gene panel canonical junction qPCR assay, MYB; type: cell-based; conditions: Homo sapiens, larger gene panel, read-out: MYB IC50 (decrease in CJ mRNA levels)
Summary of the method: as §1

Row | Compound | IC50 [1] [µM] | AC50 [1] [µM] | IC50 [2] [µM] | GI50 at 72 h [3] [µM] | IC50 [4] [µM]
1 | Cc1cn2cc(-n3cnc4nc(N(C)C5CC(C)(C)NC(C)(C)C5)sc4c3=O)cc(F)c2n1 [Compound 227, 6-(8-fluoro-2-methylimidazo[1,2-a]pyridin-6-yl)-2-(methyl(2,2,6,6-tetramethylpiperidin-4-yl)amino)thiazolo[4,5-d]pyrimidin-7(6H)-one, formate] | > 10 | > 10 | > 10 | > 10 | > 10
2 | Cc1cn2cc(-c3nn4c(=O)cc(N(C)C5CC(C)(C)NC(C)(C)C5)nc4s3)cc(F)c2n1 [Compound 215, 2-(8-fluoro-2-methylimidazo[1,2-a]pyridin-6-yl)-7-(methyl(2,2,6,6-tetramethylpiperidin-4-yl)amino)-5H-[1,3,4]thiadiazolo[3,2-a]pyrimidin-5-one] | 1 to 10 | 1 to 10 | 1 to 10 | 1 to 10 | 1 to 10
3 | Cc1cn2nc(-c3cc(=O)n4cc(N(C)C5CC(C)(C)NC(C)(C)C5)sc4n3)cc(C)c2n1 [Compound 205, 7-(2,8-dimethylimidazo[1,2-b]pyridazin-6-yl)-2-(methyl(2,2,6,6-tetramethylpiperidin-4-yl)amino)-5H-thiazolo[3,2-a]pyrimidin-5-one] | 1 to 10 | 1 to 10 | 1 to 10 | 1 to 10 | 1 to 10
